# Laboratory results taken from patent US5750405A, “Method for the detection for protein” (priority 1996, dated 1998).
# Assays:
# [1] = biological target: human serum albumin (HSA) (Homo sapiens, UniProt P02768); experiment: DIDNTB reagent strip protein response, Example I, HSA; conditions: for protein response: Example I, 6 mM of substituted alkane; for % change in response, HSA 30 mg/dL: additive 6 mM, vs control formula lacking additive, negative = loss of protein response
# Excerpt: (§1) The DIDNTB protein reagent was made from two saturations of Alhstrom 204 filter paper in which the first saturation was made with an aqueous ethanol mix containing tartaric acid as buffer and methyl red as background dye. The pH was adjusted to 2.1. The second saturation was with a toluene/tetrahydrofuran mix containing the DIDNTB indicator dye and Lutanol M40 (a polyvinylmethylether) as a color enhancer polymer.
# (§2) The mix solutions were used to saturate the filter paper and the paper was dried at 105° C. for 7 minutes after each saturation. The resultant dry reagents were processed into reagent strips which were tested on a Clinitek-200+ reflectance spectrophotometer from Bayer Diagnostics after dipping into urine containing 0 or 30 mg/dL human serum albumin or 40 mg/dL of another urinary protein. The particulars of each dip solution are set out in Table 3.
# Prior to the addition of HSA, the urine sample was filtered through an ultrafiltration membrane having a 10 KDa (kilodalton) molecular weight cut-off to remove naturally occurring proteins. The total protein in the urine sample was determined using an immunological HSA assay and the Coomassie Brilliant Blue (CBB) method described by Perini et al as cited above to screen over 175 clinical samples to provide specimens lacking albumin but containing other urine protein. […] These urines were pooled and diluted with negative urine to 40 mg/dL by the CBB method and less than 1.2 mg/dL by immunological HSA assay. The reagent response was measured on the […]-200+ instrument as the result of 1000×% Reflectance @ 610 nm/% reflectance @ 690 nm. The difference between negative and protein containing urines was taken as the protein response. The data generated by this experiment are set out in Table 1 in which the protein response of control formula lacking polymer or substituted alkane additive is compared to the formulas containing polymer or alkane to determine the % change in response. Negative numbers indicate greater loss of protein response.
# The HSA response in the presence of these additives was compared to the response for other urinary proteins such as Tamm Horsefall glycoprotein, Bence-Jones protein, α-1-microglobin, hemoglobin and various low molecular weight protein fragments. The additives were used at a 0.1% (w/w) concentration to allow a measurable HSA response in all cases. The 0.1% concentration amounts to […] concentration of additive and is in excess of the 4.4 μM concentration of the proteins tested.
# [2] = system: Urinary proteins; experiment: DIDNTB reagent strip protein response, Example I, other urinary proteins; type: binding; conditions: additive 6 mM; vs control formula lacking additive; negative = loss of protein response
# Excerpt: as §1, §2
# Prior to the addition of HSA, the urine sample was filtered through an ultrafiltration membrane having a 10 KDa (kilodalton) molecular weight cut-off to remove naturally occurring proteins. The total protein in the urine sample was determined using an immunological HSA assay and the Coomassie Brilliant Blue (CBB) method described by Perini et al as cited above to screen over 175 clinical samples to provide specimens lacking albumin but containing other urine protein. […] These urines were pooled and diluted with negative urine to 40 mg/dL by the CBB method and less than 1.2 mg/dL by immunological HSA assay. The reagent response was measured on the […]-200+ instrument as the result of 1000×% Reflectance @ 610 nm/% reflectance @ 690 nm. The difference between negative and protein containing urines was taken as the protein response. The data generated by this experiment are set out in Table 1 in which the protein response of control formula lacking polymer or substituted alkane additive is compared to the formulas containing polymer or alkane to determine the % change in response. Negative numbers indicate greater loss of protein response. […]
# [3] = system: albumin; conditions: cited from earlier work
# [4] = system: albumin; conditions: Coomassie Brilliant Blue; cited from earlier work
# human serum albumin (HSA), sequence (P02768 25-609): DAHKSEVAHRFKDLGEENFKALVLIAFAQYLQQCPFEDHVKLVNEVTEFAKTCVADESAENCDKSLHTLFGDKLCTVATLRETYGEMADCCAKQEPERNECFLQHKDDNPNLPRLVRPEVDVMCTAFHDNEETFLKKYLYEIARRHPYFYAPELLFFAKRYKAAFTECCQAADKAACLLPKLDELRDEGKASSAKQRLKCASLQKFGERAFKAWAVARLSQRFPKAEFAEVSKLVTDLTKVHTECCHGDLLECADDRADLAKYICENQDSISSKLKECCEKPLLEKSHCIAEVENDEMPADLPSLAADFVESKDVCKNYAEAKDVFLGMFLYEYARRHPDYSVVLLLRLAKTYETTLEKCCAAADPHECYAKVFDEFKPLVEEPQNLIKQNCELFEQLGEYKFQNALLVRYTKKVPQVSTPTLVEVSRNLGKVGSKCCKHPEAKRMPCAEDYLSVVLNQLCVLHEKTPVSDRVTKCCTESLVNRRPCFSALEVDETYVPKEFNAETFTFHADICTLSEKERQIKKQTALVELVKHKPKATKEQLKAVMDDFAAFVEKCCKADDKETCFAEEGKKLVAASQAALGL
protein response [1],"% change in response, HSA 30 mg/dL [1] [%]",Structure (SMILES),"% change in response, Urinary proteins 40 mg/dL [2] [%]",effect on the binding of phenol red to albumin [3],specificity of the test for albumin [4]
did not affect the protein response,7,CCCCCCCCCC(=O)O [Decanoic acid],2,–,–
did not affect the protein response,3,CCCCCCCCCCO [Decanol],8,–,–
–,–,CCCCCCCCCCCCCCCC(=O)O [Hexadecanoic acid],1,–,–
–,–,"CCCCCCCCCCCCCCCC(=O)O [Palmitate, palmitic acid]",–,modest inhibitory effects,–
–,–,CCCCCCCCCCCCOS(=O)(=O)[O-].[Na+] [sodium dodecyl sulfate],–,–,decreased the specificity
